Measured values as given in patent publication US4604383A, “Pyrrolidin-2-ones and medicaments containing them” (Societe Anonyme Styled: SANOFI, priority 1983, dated 1986).
Where two headings read alike, the source gives them in different places.

Experiments:
[1] = Antagonism of the convulsions induced by electric shock; assay type: in vivo, mouse (CD1 Charles Rivers mice); details: mouse, at 200 mg/kg p.os.
Description: (§1) The anticonvulsant effect of the products in the mouse was evaluated on a model of convulsions caused by electric shock, and on 2 models of convulsions induced by chemical agents: bicuculline and 3-mercaptopropionic acid.
(§2) The test was slightly modified from that of Swinyard et al., J. Pharm. Exp. Ther., 1952, 106, 319-330 and Asami et al. Arzneim. Forsch., 1974, 24 (1), 1563-1568. The equipment was composed of a Racia shock generator provided with two occular electrodes delivering a current of 60 volts for 0.3 seconds. The batches were constituted by 10 CD1 Charles Rivers mice of weight comprised between 20 and 24 g. The products were administered orally, 60 minutes before the electroshock.

[2] = Effect on spontaneous motility (Boissier and Simon activity test, actimetric cages); assay type: in vivo, mouse (CD1 Charles Rivers female mice); details: mouse
Description: The spontaneous motility of the animals was measured by means of the activity test developed by Boissier and Simon, Arch. Int. Pharmacocyn., 1965, 158, 212-221. The equipment is composed of actimetric cages, type Apelab (26×21.5×10 cm), traversed by two light rays which fall on a photoelectric cell. The batches were constituted by CD1 Charles Rivers female mice, of weight comprised between 20 and 24 g. The animals were placed individually in cages 45 minutes after oral administration of the products at the dose of 100 mg/kg. Each traversal by a light beam was counted by an individual counter. The scores corresponding to the movements of the animals were recorded for 10 minutes, and compared with the scores taken on batches of control animals, treated only with the vehicle (5% gum arabic).

[3] = Potentiation of narcosis with pentobarbital (loss of righting reflex); assay type: in vivo, mouse (CD1 Charles Rivers mice); details: mouse
Description: For the purpose of evaluating the hypnogenic power of the products, their capacity to potentiate the effects of a subnarcotic dose of pentabarbital in the mouse was studied. The batches were constituted by 10 CD1 Charles Rivers mice, of weight comprised between 20 and 24 g.
The pentobarbital (20 mg/kg, i.p.) was administered 60 minutes after administration of the products. The drowsiness criterion taken was the loss of the righting reflex.

[4] = Antagonism to the convulsions caused by 3-mercaptopropionic acid; assay type: in vivo, mouse (CD Charles Rivers mice); details: mouse, oral, 60 min before 3-mercaptopropionic acid 60 mg/kg s.c.; probit method, confidence limits in parentheses, p <= 0.05; read-out: Median effective dose (ED50) of antagonism to convulsions caused by 3-mercaptopropionic acid
Description: as §1
(§3) The batches were constituted by 10 CD Charles Rivers mice of weights comprised between 20 and 22 g. The products were administered orally 60 minutes before the 3-mercaptopropionic acid (60 mg/kg s.c.).

[5] = Antagonism of convulsions and of mortality caused by bicucullin; assay type: in vivo, mouse (CD Charles Rivers mice); details: mouse
Description: as §1
(§4) The batches were constituted by 10 CD Charles Rivers mice of weights comprised between 20 and 22 g. The products were administered orally, 60 minutes before the bicucullin (0.8 mg/kg, i.v.).

[6] = Acute toxicity, determination of the lethal dose in the mouse; details: in vivo, po, read-out: Percent toxicity (animals which die in 72 hours)
Description: The toxicity of the products according to the invention was studied: the products were administered orally, to batches of 5 CD Charles Rivers female mice, of weights comprised between 20 and 24 g. The toxicity was noted during the 72 hours which followed the administration of the products.
The results expressed as a percentage of animals which die in the 72 hours following the oral administration of the products, are noted in the preceding table.

[7] = Evaluation of the anticonvulsant activity (electric shock, bicucullin and 3-mercaptopropionic acid taken together); assay type: in vivo; details: mouse, oral
Description: as §1, §2, §4, §3

O=C1CCC(Cc2ccccc2)N1 (stereo not drawn) [Compound A, 5-phenylmethyl 2-pyrrolidinone, reference compound]
Inhibition of electric shock convulsions [1]: 40% | Locomotor activity, score percent/controls ([2]; 100 mg/kg p.os., 45 min after administration, 10 min recording, * P <= 0.05, ** P <= 0.01): +1.2% | Effect on spontaneous motility (in words) ([2]; oral dose of 100 mg/kg): does not act on the spontaneous motility | Hypnogenic effect / potentiation of narcosis with pentobarbital (in words) ([3]; oral): devoid of hyponogenic effect | Potentiation of pentobarbital, percent of animals in narcosis ([3]; products at 100 mg/kg p.os., 60 min before pentobarbital 20 mg/kg i.p.): 0% | ED50 [4]: > 100 mg/kg | Antagonism to bicucullin mortality ([5]; at 200 (mg/kg p.o.)): 30% | Median effective dose (ED50) of the antagonism to the effects of bicucullin: Tonic convulsions ([5]; oral, 60 min before bicucullin 0.8 mg/kg i.v., probit method, confidence limits in parentheses, p < 0.05): inactive at 200 | mortality at 72 h ([6]; 250 mg/kg p.os.): 0% | mortality at 72 h ([6]; 500 mg/kg p.os.): 0% | mortality at 72 h ([6]; 1000 mg/kg p.os.): 60% | Anticonvulsant properties (in words) [7]: does not show anticonvulsant properties
